The results in this text go back to the NIST ThermoML archive (doi:10.1021/je500050p).

SMILES strings stand for the structures. Numbers after ± are expanded uncertainties.

The series can be described thus: activity coefficient (dimensionless); of the first substance listed, at infinite dilution; xn = mol fraction of the nth substance listed. Particulars: 101 kPa, Liquid, Chromatography, x1 = 0.

With `Cc1ccccc1C` [1,2-dimethylbenzene] + CC1(C)[C@@H]2CC[C@@]1(CS(=O)(=O)[O-])C(=O)C2.CCCCCCCCCCCCCC[N+](CCCCCC)(CCCCCC)CCCCCC, the activity coefficient was 0.49 ± 0.04 (323.15 K), 0.77 ± 0.05 (333.15 K) and 1.13 ± 0.07 (343.15 K).

Consider `Cc1ccccc1C` [1,2-dimethylbenzene] + CCCCCCCCCCCCCC[N+](CCCCCC)(CCCCCC)CCCCCC.C[C@H](O)C(=O)[O-], for which the activity coefficient (323.15 K) was 0.53 ± 0.04, the activity coefficient (353.15 K) turned out to be 0.55 ± 0.04 and the activity coefficient (373.15 K) came to 0.58 ± 0.04.

Consider `Cc1cccc(C)c1` [1,3-dimethylbenzene] + CC1(C)[C@@H]2CC[C@@]1(CS(=O)(=O)[O-])C(=O)C2.CCCCCCCCCCCCCC[N+](CCCCCC)(CCCCCC)CCCCCC, for which the activity coefficient by setting is: (323.15 K) 0.52 ± 0.04; (333.15 K) 0.81 ± 0.05; (343.15 K) 1.16 ± 0.07.

Regarding `Cc1cccc(C)c1` [1,3-dimethylbenzene] + CCCCCCCCCCCCCC[N+](CCCCCC)(CCCCCC)CCCCCC.C[C@H](O)C(=O)[O-], the activity coefficient was determined as 0.57 ± 0.04 (323.15 K), 0.59 ± 0.04 (353.15 K) and 0.6 ± 0.1 (373.15 K).

Turning to `Cc1ccc(C)cc1` [1,4-dimethylbenzene] + CC1(C)[C@@H]2CC[C@@]1(CS(=O)(=O)[O-])C(=O)C2.CCCCCCCCCCCCCC[N+](CCCCCC)(CCCCCC)CCCCCC, the activity coefficient was determined as 0.51 ± 0.04 (323.15 K), 0.8 ± 0.1 (333.15 K) and 1.17 ± 0.07 (343.15 K).

Regarding `Cc1ccc(C)cc1` [1,4-dimethylbenzene] + CCCCCCCCCCCCCC[N+](CCCCCC)(CCCCCC)CCCCCC.C[C@H](O)C(=O)[O-], the activity coefficient is 0.58 ± 0.04 (323.15 K), 0.58 ± 0.04 (353.15 K) and 0.58 ± 0.04 (373.15 K).

In the case of `C1COCCO1` [1,4-dioxane] + CC1(C)[C@@H]2CC[C@@]1(CS(=O)(=O)[O-])C(=O)C2.CCCCCCCCCCCCCC[N+](CCCCCC)(CCCCCC)CCCCCC, the activity coefficient reads like this: (323.15 K) 0.52 ± 0.04; (333.15 K) 0.74 ± 0.05; (343.15 K) 1.

`C#CCCCCC` [1-heptyne] + CC1(C)[C@@H]2CC[C@@]1(CS(=O)(=O)[O-])C(=O)C2.CCCCCCCCCCCCCC[N+](CCCCCC)(CCCCCC)CCCCCC: the activity coefficient reads like this: (323.15 K) 0.49 ± 0.04; (333.15 K) 0.78 ± 0.05; (343.15 K) 1.17 ± 0.07.

Regarding `C#CCCCC` [1-hexyne] + CC1(C)[C@@H]2CC[C@@]1(CS(=O)(=O)[O-])C(=O)C2.CCCCCCCCCCCCCC[N+](CCCCCC)(CCCCCC)CCCCCC, the activity coefficient (323.15 K) came out at 0.46 ± 0.04, the activity coefficient (333.15 K) amounted to 0.69 ± 0.05 and the activity coefficient (343.15 K) was found to be 0.95 ± 0.06.

Consider `CCC[N+](=O)[O-]` [1-nitropropane] + CC1(C)[C@@H]2CC[C@@]1(CS(=O)(=O)[O-])C(=O)C2.CCCCCCCCCCCCCC[N+](CCCCCC)(CCCCCC)CCCCCC, for which the activity coefficient (323.15 K) worked out at 0.35 ± 0.03, the activity coefficient (333.15 K) came out at 0.55 ± 0.04 and the activity coefficient (343.15 K) worked out at 0.82 ± 0.05.

As for `CCC[N+](=O)[O-]` [1-nitropropane] + CCCCCCCCCCCCCC[N+](CCCCCC)(CCCCCC)CCCCCC.C[C@H](O)C(=O)[O-], the activity coefficient (323.15 K) was found to be 0.33 ± 0.03, the activity coefficient (353.15 K) was 0.34 ± 0.03 and the activity coefficient (373.15 K) turned out to be 0.36 ± 0.03.

Consider `CC(C)CC(C)(C)C` [2,2,4-trimethylpentane] + CCCCCCCCCCCCCC[N+](CCCCCC)(CCCCCC)CCCCCC.C[C@H](O)C(=O)[O-], for which the activity coefficient by setting is: (323.15 K) 1.33 ± 0.09; (353.15 K) 1.27 ± 0.08; (373.15 K) 1.25 ± 0.08.

For the compound `CC(C)CO` [2-methyl-1-propanol] + CC1(C)[C@@H]2CC[C@@]1(CS(=O)(=O)[O-])C(=O)C2.CCCCCCCCCCCCCC[N+](CCCCCC)(CCCCCC)CCCCCC, the activity coefficient is 0.08 ± 0.03 (323.15 K), 0.15 ± 0.03 (333.15 K) and 0.24 ± 0.03 (343.15 K).

On to `CC#N` [acetonitrile] + CC1(C)[C@@H]2CC[C@@]1(CS(=O)(=O)[O-])C(=O)C2.CCCCCCCCCCCCCC[N+](CCCCCC)(CCCCCC)CCCCCC, for which the activity coefficient (323.15 K) was 0.46 ± 0.04, the activity coefficient (333.15 K) is 0.66 ± 0.05 and the activity coefficient (343.15 K) worked out at 0.89 ± 0.06.

Regarding `CC#N` [acetonitrile] + CCCCCCCCCCCCCC[N+](CCCCCC)(CCCCCC)CCCCCC.C[C@H](O)C(=O)[O-], the activity coefficient by setting is: (323.15 K) 0.45 ± 0.04; (353.15 K) 0.44 ± 0.04; (373.15 K) 0.43 ± 0.04.

For `c1ccccc1` [benzene] + CC1(C)[C@@H]2CC[C@@]1(CS(=O)(=O)[O-])C(=O)C2.CCCCCCCCCCCCCC[N+](CCCCCC)(CCCCCC)CCCCCC, the activity coefficient reads like this: (323.15 K) 0.36 ± 0.03; (333.15 K) 0.51 ± 0.04; (343.15 K) 0.69 ± 0.05.

`c1ccccc1` [benzene] + CCCCCCCCCCCCCC[N+](CCCCCC)(CCCCCC)CCCCCC.C[C@H](O)C(=O)[O-]: the activity coefficient runs as follows: (323.15 K) 0.38 ± 0.03; (353.15 K) 0.38 ± 0.03; (373.15 K) 0.39 ± 0.03.

Take `CCCCO` [butan-1-ol] + CC1(C)[C@@H]2CC[C@@]1(CS(=O)(=O)[O-])C(=O)C2.CCCCCCCCCCCCCC[N+](CCCCCC)(CCCCCC)CCCCCC: the activity coefficient came out at 0.09 ± 0.03 (323.15 K), 0.15 ± 0.03 (333.15 K) and 0.27 ± 0.03 (343.15 K).

As to `CCC(C)=O` [butanone] + CC1(C)[C@@H]2CC[C@@]1(CS(=O)(=O)[O-])C(=O)C2.CCCCCCCCCCCCCC[N+](CCCCCC)(CCCCCC)CCCCCC, the activity coefficient is 0.43 ± 0.04 (323.15 K), 0.57 ± 0.04 (333.15 K) and 0.73 ± 0.05 (343.15 K).

As for `C1CCCCC1` [cyclohexane] + CC1(C)[C@@H]2CC[C@@]1(CS(=O)(=O)[O-])C(=O)C2.CCCCCCCCCCCCCC[N+](CCCCCC)(CCCCCC)CCCCCC, the activity coefficient is, setting by setting: (323.15 K) 0.69 ± 0.05; (333.15 K) 0.95 ± 0.06; (343.15 K) 1.24 ± 0.08.

Take `C1CCCCC1` [cyclohexane] + CCCCCCCCCCCCCC[N+](CCCCCC)(CCCCCC)CCCCCC.C[C@H](O)C(=O)[O-]: the activity coefficient runs as follows: (323.15 K) 0.77 ± 0.05; (353.15 K) 0.73 ± 0.05; (373.15 K) 0.71 ± 0.05.

For the compound `CCCCCCCCCC` [decane] + CC1(C)[C@@H]2CC[C@@]1(CS(=O)(=O)[O-])C(=O)C2.CCCCCCCCCCCCCC[N+](CCCCCC)(CCCCCC)CCCCCC, the activity coefficient was determined as 1.52 ± 0.1 (323.15 K), 2.41 ± 0.16 (333.15 K) and 3.63 ± 0.25 (343.15 K).

For `CCCCCCCCCC` [decane] + CCCCCCCCCCCCCC[N+](CCCCCC)(CCCCCC)CCCCCC.C[C@H](O)C(=O)[O-], the activity coefficient is 1.67 ± 0.11 (323.15 K), 1.63 ± 0.11 (353.15 K) and 1.59 ± 0.11 (373.15 K).

For the compound `ClCCl` [dichloromethane] + CC1(C)[C@@H]2CC[C@@]1(CS(=O)(=O)[O-])C(=O)C2.CCCCCCCCCCCCCC[N+](CCCCCC)(CCCCCC)CCCCCC, the activity coefficient runs as follows: (323.15 K) 0.09 ± 0.03; (333.15 K) 0.15 ± 0.03; (343.15 K) 0.22 ± 0.03.

Regarding `ClCCl` [dichloromethane] + CCCCCCCCCCCCCC[N+](CCCCCC)(CCCCCC)CCCCCC.C[C@H](O)C(=O)[O-], the activity coefficient was 0.06 (323.15 K), 0.08 ± 0.03 (353.15 K) and 0.1 (373.15 K).

For the compound `CCOCC` [diethyl ether] + CC1(C)[C@@H]2CC[C@@]1(CS(=O)(=O)[O-])C(=O)C2.CCCCCCCCCCCCCC[N+](CCCCCC)(CCCCCC)CCCCCC, the activity coefficient is, setting by setting: (323.15 K) 0.73 ± 0.05; (333.15 K) 0.96 ± 0.06; (343.15 K) 1.14 ± 0.07.

Consider `CCOCC` [diethyl ether] + CCCCCCCCCCCCCC[N+](CCCCCC)(CCCCCC)CCCCCC.C[C@H](O)C(=O)[O-], for which the activity coefficient reads like this: (323.15 K) 0.84 ± 0.05; (353.15 K) 0.79 ± 0.05; (373.15 K) 0.77 ± 0.05.

Turning to `CC(C)OC(C)C` [diisopropyl ether] + CC1(C)[C@@H]2CC[C@@]1(CS(=O)(=O)[O-])C(=O)C2.CCCCCCCCCCCCCC[N+](CCCCCC)(CCCCCC)CCCCCC, the activity coefficient worked out at 1 (323.15 K), 1.39 ± 0.09 (333.15 K) and 1.77 ± 0.12 (343.15 K).

In the case of `CC(C)OC(C)C` [diisopropyl ether] + CCCCCCCCCCCCCC[N+](CCCCCC)(CCCCCC)CCCCCC.C[C@H](O)C(=O)[O-], the activity coefficient runs as follows: (323.15 K) 1.13 ± 0.07; (353.15 K) 1.08 ± 0.07; (373.15 K) 1.06 ± 0.07.

As to `CCCCCCCCCCCC` [dodecane] + CC1(C)[C@@H]2CC[C@@]1(CS(=O)(=O)[O-])C(=O)C2.CCCCCCCCCCCCCC[N+](CCCCCC)(CCCCCC)CCCCCC, the activity coefficient by setting is: (323.15 K) 1.72 ± 0.12; (333.15 K) 3.15 ± 0.22; (343.15 K) 5.14 ± 0.35.

With `CCO` [ethanol] + CC1(C)[C@@H]2CC[C@@]1(CS(=O)(=O)[O-])C(=O)C2.CCCCCCCCCCCCCC[N+](CCCCCC)(CCCCCC)CCCCCC, the activity coefficient is, setting by setting: (323.15 K) 0.1; (333.15 K) 0.17 ± 0.03; (343.15 K) 0.26 ± 0.03.

Take `CCO` [ethanol] + CCCCCCCCCCCCCC[N+](CCCCCC)(CCCCCC)CCCCCC.C[C@H](O)C(=O)[O-]: the activity coefficient (323.15 K) came out at 0.03, the activity coefficient (353.15 K) came out at 0.03 and the activity coefficient (373.15 K) is 0.04.

Turning to `CCc1ccccc1` [ethylbenzene] + CC1(C)[C@@H]2CC[C@@]1(CS(=O)(=O)[O-])C(=O)C2.CCCCCCCCCCCCCC[N+](CCCCCC)(CCCCCC)CCCCCC, the activity coefficient (323.15 K) worked out at 0.49 ± 0.04, the activity coefficient (333.15 K) amounted to 0.76 ± 0.05 and the activity coefficient (343.15 K) amounted to 1.11 ± 0.07.

Regarding `CCc1ccccc1` [ethylbenzene] + CCCCCCCCCCCCCC[N+](CCCCCC)(CCCCCC)CCCCCC.C[C@H](O)C(=O)[O-], the activity coefficient (323.15 K) is 0.56 ± 0.04, the activity coefficient (353.15 K) was determined as 0.56 ± 0.04 and the activity coefficient (373.15 K) is 0.57 ± 0.04.

With `CCCCCCC` [heptane] + CC1(C)[C@@H]2CC[C@@]1(CS(=O)(=O)[O-])C(=O)C2.CCCCCCCCCCCCCC[N+](CCCCCC)(CCCCCC)CCCCCC, the activity coefficient runs as follows: (323.15 K) 1.14 ± 0.07; (333.15 K) 1.57 ± 0.1; (343.15 K) 2.14 ± 0.15.
